Measurements published in patent publication US6737383B1, “Herbicidal oxadiazolidines” (priority 1999, dated 2004).

Experiments:
blackgrass = assay: Test B pre/postemergence blackgrass; format: in vivo, Alopecurus myosuroides
Outline: (§1)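 Response is a visual 0-to-10 score relative to untreated plants, where 0 means no effect and 10 means complete control, taken twelve to sixteen days after application. Treatments went onto soil at planting and onto foliage of 1- to 4-leaf plants, using a surfactant-containing non-phytotoxic solvent.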

surinam grass = assay: Test B pre/postemergence surinam grass; format: in vivo, Brachiaria decumbens
Outline: as §1

cocklebur = assay: Test B pre/postemergence cocklebur; format: in vivo, Xanthium strumarium
Outline: as §1

corn = assay: Test B pre/postemergence corn; format: in vivo, Zea mays
Outline: as §1

crabgrass = assay: Test B pre/postemergence crabgrass; format: in vivo, Digitaria sanguinalis
Outline: as §1

giant foxtail = assay: Test B pre/postemergence giant foxtail; format: in vivo, Setaria faberii
Outline: as §1

morningglory = assay: Test B pre/postemergence morningglory; format: in vivo, Ipomoea hederacea
Outline: as §1

pigweed = assay: Test B pre/postemergence pigweed; format: in vivo, Amaranthus retroflexus
Outline: as §1

rape = assay: Test B pre/postemergence rape; format: in vivo, Brassica napus
Outline: as §1

soybean = assay: Test B pre/postemergence soybean; format: in vivo, Glycine max
Outline: as §1

sugar beet = assay: Test B pre/postemergence sugar beet; format: in vivo, Beta vulgaris
Outline: as §1

velvetleaf = assay: Test B pre/postemergence velvetleaf; format: in vivo, Abutilon theophrasti
Outline: as §1

wild oat = assay: Test B pre/postemergence wild oat; format: in vivo, Avena fatua
Outline: as §1

purple nutsedge = assay: Test B pre/postemergence purple nutsedge; format: in vivo, Cyperus rotundus
Outline: as §1

smallflower flatsedge = assay: Test B flood test smallflower flatsedge; format: in vivo, Cyperus difformis
Outline: (§2)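 Read-out is a visual response score from 0 (no effect) to 10 (complete control), assigned by comparison with untreated controls. Treatment was applied at the 2-leaf stage, and plants stayed in the greenhouse for twelve to sixteen days before scoring.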

bamyardgrass = assay: Test B flood test barnyardgrass; format: in vivo, Echinochloa crus-galli
Outline: as §2

[1] = Postemergence, Rate 62 g/ha, scale 0 to 10, 0 is no effect, 10 is complete control
[2] = Postemergence, Rate 125 g/ha, scale of 0 to 10 where 0 is no effect and 10 is complete control
[3] = Postemergence, Rate 250 g/ha, scale of 0 to 10, 0 is no effect, 10 is complete control
[4] = Postemergence, Rate 500 g/ha, scale of 0 to 10 where 0 is no effect and 10 is complete control
[5] = Preemergence, Rate 62 g/ha, scale 0 to 10 (0 no effect, 10 complete control)
[6] = Preemergence, Rate 125 g/ha, scale of 0 to 10 where 0 is no effect and 10 is complete control
[7] = Preemergence, Rate 500 g/ha, scale of 0 to 10 where 0 is no effect and 10 is complete control
[8] = Rate 62 g/ha, flood test species, Pre-emergence, visual evaluation after twelve to sixteen days
[9] = Rate 125 g/ha, under heading Pre-emergence, flood test species, visual evaluation after twelve to sixteen days
[10] = Rate 250 g/ha, Pre-emergence (flood test species), scale 0 to 10, 0 is no effect, 10 is complete control
[11] = Rate 500 g/ha, Pre-emergence section of Table B, 0 to 10 scale (0 no effect, 10 complete control)

CCC(C)n1c(=O)on(C(=O)N(c2ccccc2)C(C)C)c1=O (centres unmarked) [Compound 612]
Plant response rating, Blackgrass (blackgrass; [1]): 7
Plant response rating, Blackgrass (blackgrass; [2]): 9
Blackgrass plant response rating (blackgrass; [3]): 9
Plant response rating, Blackgrass (blackgrass; [4]): 10
Blackgrass plant response rating (blackgrass; [5]): 8
Blackgrass plant response rating (blackgrass; [6]): 10
Blackgrass plant response rating (0 to 10 scale) (blackgrass; Preemergence, Rate 250 g/ha): 10
Blackgrass plant response rating (blackgrass; [7]): 10
Plant response rating, B. signalgrass (surinam grass; [1]): 1
Plant response rating, B. signalgrass (surinam grass; [2]): 3
B. signalgrass plant response rating (surinam grass; [3]): 7
Plant response rating, B. signalgrass (surinam grass; [4]): 9
B. signalgrass plant response rating (surinam grass; [5]): 4
B. signalgrass plant response rating (surinam grass; [6]): 7
B. signalgrass plant response rating (0 to 10 scale, 0 is no effect, 10 is complete control) (surinam grass; Preemergence, Rate 250 g/ha): 10
B. signalgrass plant response rating (surinam grass; [7]): 10
Plant response rating, Cocklebur (cocklebur; [1]): 0
Plant response rating, Cocklebur (cocklebur; [2]): 0
Cocklebur plant response rating (cocklebur; [3]): 0
Plant response rating, Cocklebur (cocklebur; [4]): 2
Cocklebur plant response rating (cocklebur; [5]): 0
Cocklebur plant response rating (cocklebur; [6]): 0
Cocklebur plant response rating (0 to 10 scale) (cocklebur; Preemergence, Rate 250 g/ha): 0
Plant response rating, Cocklebur (cocklebur; [7]): 0
Plant response rating, Corn (corn; [1]): 0
Plant response rating, Corn (corn; [2]): 0
Corn plant response rating (corn; [3]): 0
Plant response rating, Corn (corn; [4]): 0
Corn plant response rating (corn; [5]): 0
Corn plant response rating (corn; [6]): 3
Corn plant response rating (0 to 10 scale) (corn; Preemergence, Rate 250 g/ha): 8
Plant response rating, Corn (corn; [7]): 9
Plant response rating, Crabgrass (crabgrass; [1]): 4
Plant response rating, Crabgrass (crabgrass; [2]): 8
Crabgrass plant response rating (crabgrass; [3]): 9
Plant response rating, Crabgrass (crabgrass; [4]): 10
Crabgrass plant response rating (crabgrass; [5]): 10
Crabgrass plant response rating (crabgrass; [6]): 10
Plant response rating, Crabgrass (crabgrass; [7]): 10
Plant response rating, Giant foxtail (giant foxtail; [1]): 7
Plant response rating, Giant foxtail (giant foxtail; [2]): 9
Giant foxtail plant response rating (giant foxtail; [3]): 9
Plant response rating, Giant foxtail (giant foxtail; [4]): 9
Giant foxtail plant response rating (giant foxtail; [5]): 10
Giant foxtail plant response rating (giant foxtail; [6]): 10
Plant response rating, Giant foxtail (giant foxtail; [7]): 10
Plant response rating, Morningglory (morningglory; [1]): 5
Plant response rating, Morningglory (morningglory; [2]): 8
Morningglory plant response rating (morningglory; [3]): 8
Plant response rating, Morningglory (morningglory; [4]): 10
Morningglory plant response rating (morningglory; [5]): 0
Morningglory plant response rating (morningglory; [6]): 0
Plant response rating, Morningglory (morningglory; [7]): 10
Plant response rating, Redroot pigweed (pigweed; [1]): 0
Plant response rating, Redroot pigweed (pigweed; [2]): 2
Redroot pigweed plant response rating (pigweed; [3]): 4
Plant response rating, Redroot pigweed (pigweed; [4]): 7
Redroot pigweed plant response rating (pigweed; [5]): 8
Redroot pigweed plant response rating (pigweed; [6]): 10
Plant response rating, Redroot pigweed (pigweed; [7]): 10
Plant response rating, Rape (rape; [1]): 0
Plant response rating, Rape (rape; [2]): 0
Rape plant response rating (rape; [3]): 0
Plant response rating, Rape (rape; [4]): 7
Rape plant response rating (rape; [5]): 0
Rape plant response rating (rape; [6]): 3
Plant response rating, Rape (rape; [7]): 10
Plant response rating, Soybean (soybean; [1]): 4
Plant response rating, Soybean (soybean; [2]): 5
Soybean plant response rating (soybean; [3]): 7
Plant response rating, Soybean (soybean; [4]): 8
Soybean plant response rating (soybean; [5]): 0
Soybean plant response rating (soybean; [6]): 0
Plant response rating, Soybean (soybean; [7]): 3
Plant response rating, Sugarbeets (sugar beet; [1]): 0
Plant response rating, Sugarbeets (sugar beet; [2]): 0
Sugarbeets plant response rating (sugar beet; [3]): 0
Plant response rating, Sugarbeets (sugar beet; [4]): 1
Sugarbeets plant response rating (sugar beet; [5]): 3
Sugarbeets plant response rating (sugar beet; [6]): 5
Plant response rating, Sugarbeets (sugar beet; [7]): 7
Plant response rating, Velvetleaf (velvetleaf; [1]): 2
Plant response rating, Velvetleaf (velvetleaf; [2]): 3
Velvetleaf plant response rating (velvetleaf; [3]): 3
Plant response rating, Velvetleaf (velvetleaf; [4]): 6
Velvetleaf plant response rating (velvetleaf; [5]): 6
Velvetleaf plant response rating (velvetleaf; [6]): 7
Plant response rating, Velvetleaf (velvetleaf; [7]): 8
Plant response rating, Wild oats (wild oat; [1]): 0
Plant response rating, Wild oats (wild oat; [2]): 6
Wild oats plant response rating (wild oat; [3]): 6
Plant response rating, Wild oats (wild oat; [4]): 9
Wild oats plant response rating (wild oat; [5]): 5
Wild oats plant response rating (wild oat; [6]): 9
Plant response rating, Wild oats (wild oat; [7]): 10
Plant response rating, Nutsedge (purple nutsedge; [1]): 0
Plant response rating, Nutsedge (purple nutsedge; [2]): 0
Nutsedge plant response rating (purple nutsedge; [3]): 0
Plant response rating, Nutsedge (purple nutsedge; [4]): 2
Nutsedge plant response rating (purple nutsedge; [5]): 0
Nutsedge plant response rating (purple nutsedge; [6]): 0
Plant response rating, Nutsedge (purple nutsedge; [7]): 3
Plant response rating, S. Flatsedge (0 to 10 scale, 0 is no effect, 10 is complete control) (smallflower flatsedge; [8]): 0
S. Flatsedge plant response rating (0 to 10 scale, 0 is no effect, 10 is complete control) (smallflower flatsedge; [9]): 0
S. Flatsedge plant response rating (smallflower flatsedge; [10]): 0
S. Flatsedge plant response rating (smallflower flatsedge; [11]): 0
Plant response rating, Barnyardgrass (0 to 10 scale, 0 is no effect, 10 is complete control) (bamyardgrass; [8]): 0
Barnyardgrass plant response rating (0 to 10 scale, 0 is no effect, 10 is complete control) (bamyardgrass; [9]): 0
Barnyardgrass plant response rating (bamyardgrass; [10]): 0
Barnyardgrass plant response rating (bamyardgrass; [11]): 0
